Where “and” joins values, the source holds several entries; their conditions need not be identical. Equal entries are not always repeated.

Data on two compounds can be found in publication PMC10146558, “Highly Cytotoxic Copper(II) Mixed-Ligand Quinolinonato Complexes: Pharmacokinetic Properties and Interactions with Drug Metabolizing Cytochromes P450” (Pharmaceutics, 2023).

Data set [1] can be described thus: Stability in human plasma. As to conditions: 37 °C, 3.3 μM. Format: in vitro ADME. As for the experimental part:
(§1) Pharmacological properties of the complexes 1 and 2, including stability in plasma, microsomal stability, binding to plasma proteins, and permeability through an artificial membrane, were tested under in vitro conditions and according to methods described in previous reports. Analysis of the samples was performed using Agilent RapidFire 300 High-Throughput Mass Spectrometry System (Agilent Technologies, Wakefield, MA, USA) with subsequent detection using the mass spectrometer Qtrap 5500 (AB Sciex, Concord, Toronto, ON, Canada), abbreviation RF-MS. The samples were aspirated directly from the plates into a 10 μL sample loop and passed through a C4 cartridge with solvent A (5% acetonitrile, 95% water, 0.1% formic acid) at a flow rate of 1.5 mL/min for 3 s. After the desalting step, analytes retained on the cartridge were eluted with solvent B (95% acetonitrile, 5% water, 0.1% formic acid) in the mass spectrometer at a flow rate of 0.4 mL/min for 5 s. The mass spectrometry of the samples was carried out using electrospray ionisation in the positive ion mode. Daughter ion peaks were identified using a multiple-reaction monitoring protocol.
The reaction was terminated by ice-cold methanol (chemical stability) or acetonitrile:methanol (2:1), and samples were left at −80 °C overnight (plasma stability). The solution was mixed and centrifuged (4000 rpm, 9 min, 4 °C). After lyophilization of supernatant, samples were dissolved in mobile phase with internal standard and analysed by RF/MS analysis.

Data set [2] can be described thus: Microsomal stability assay. Format: in vitro ADME. As to conditions: human liver microsomes, NADPH-generating system, 5.74 μM. As for the experimental part:
as §1
According to the protocol, reaction mixtures included tested compound (5.74 μM), human liver microsomes, NADPH-generating system consisting of NADP^+, isocitrate dehydrogenase, isocitric acid, and MgSO4 in 100 mM K/PO4 buffer. Assay was performed at 0, 15, 30, and 60 min. Reactions were terminated using acetonitrile–methanol (2:1) mixture. After centrifugation, the supernatant was lyophilized and analysed by RF-MS. The values of intrinsic clearance were calculated using the formula: CLint = 0.693/t1/2/mg microsome protein per mL of reaction.
In general terms: Microsomes from liver hold many membrane-bound enzymes, among them those of drug oxidation.

A short description of data set [3]: Parallel artificial membrane permeability assay (PAMPA). The data set is classed as in vitro ADME. As to conditions: category according to log Papp. As to the method: Pharmacological properties of the complexes 1 and 2, including stability in plasma, microsomal stability, binding to plasma proteins, and permeability through an artificial membrane, were tested under in vitro conditions and according to methods described in previous reports. Analysis of the samples was performed using Agilent RapidFire 300 High-Throughput Mass Spectrometry System (Agilent Technologies, Wakefield, MA, USA) with subsequent detection using the mass spectrometer Qtrap 5500 (AB Sciex, Concord, Toronto, ON, Canada), abbreviation RF-MS. […]
PAMPA was performed with the Millipore MultiScreen filter MultiScreen-IP Durapore 0.45-μm plates and receiver plates (Merck Millipore, Burlington, MA, USA). […] The permeation of compounds across a filter membrane (activation by 10% lecithin in dodecane) was quantified by RF/MS after 18 h incubation at room temperature. The apparent permeability, logPe, was calculated from the following equation: logPe = log{C× − ln(1 − drugA/drugE)}; C = (VA × VD)/{(VD + VA) × A × T}, where VD and VA are the volumes of the donor and acceptor compartments, respectively; A is the active surface area of the membrane; T is the time of the incubation in seconds; and drugA or drugE represents the concentration of the tested compounds in the acceptor compartment and in the solution in theoretical equilibrium.

The next data set deals with CYP3A4/5. Nature of the data set: CYP3A4/5 activity (testosterone 6β-hydroxylation) in human liver microsomes. As to conditions: for Type of inhibition, CYP3A4/5 (testosterone 6β-hydroxylation) / Ki: Dixon and Lineweaver–Burk plots; for IC50: read-out: IC50 CYP3A4/5 (testosterone 6β-hydroxylation assay), human liver microsomes; for Ki: read-out: Ki CYP3A4/5 (testosterone 6β-hydroxylation assay), substrate ½ Km to 4 Km.

The target of the next data set is T1, CYP2C19 (Homo sapiens, UniProt P33261).
T1 construct: Cryopreserved pooled human liver microsomes were obtained from Xenotech; tissue Xenotech (Lenexa, KS, USA); host or cells: pooled human liver microsomes
T1 sequence (P33261 whole entry): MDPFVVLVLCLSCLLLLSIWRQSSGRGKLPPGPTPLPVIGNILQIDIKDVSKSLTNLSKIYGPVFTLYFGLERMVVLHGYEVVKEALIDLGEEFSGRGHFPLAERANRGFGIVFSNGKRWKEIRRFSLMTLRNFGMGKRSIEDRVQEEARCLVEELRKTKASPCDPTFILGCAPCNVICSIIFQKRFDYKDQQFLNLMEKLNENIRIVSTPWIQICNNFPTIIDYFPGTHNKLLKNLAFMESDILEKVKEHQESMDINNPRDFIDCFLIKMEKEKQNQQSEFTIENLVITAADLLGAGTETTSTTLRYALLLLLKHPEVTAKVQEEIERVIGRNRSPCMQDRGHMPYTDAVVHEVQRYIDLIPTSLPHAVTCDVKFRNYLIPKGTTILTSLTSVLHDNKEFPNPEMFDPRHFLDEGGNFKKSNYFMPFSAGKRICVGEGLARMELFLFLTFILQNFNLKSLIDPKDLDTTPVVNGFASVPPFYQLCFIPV
The experiment in a line: CYP2C19 activity ((S)-mephenytoin 4′-hydroxylation) in human liver microsomes. Format: biochemical. As to conditions: for Type of inhibition, CYP2C19 / Ki: Dixon and Lineweaver–Burk plots; for Ki: substrate ½ Km to 4 Km; for IC50: human liver microsomes, (S)-mephenytoin 4′-hydroxylation.

For a further data set, the target named is CYP3A4 (Homo sapiens, UniProt P08684). The experiment in a line: Isothermal titration calorimetry, recombinant human CYP3A4. Format: binding. Further details: purchased Sigma-Aldrich (Prague, Czech Republic). As to conditions: recombinant human CYP3A4, 25 °C; for n, CYP3A4: ITC stoichiometry, pH 7.4; for Ka, CYP3A4 / Kd / ΔG, CYP3A4 / ΔH, CYP3A4 / ΔS, CYP3A4: ITC, pH 7.4, 1% DMSO. As for the experimental part:
The interactions of the compounds with selected forms of cytochrome P450, i.e., human bactosomes CYP1A2, CYP2A6, CYP3A4, and recombinant human CYP3A4, were studied using isothermal titration calorimetry (ITC). ITC experiments were performed at 25 °C with a Nano ITC Low Volume (TA Instruments, New Castle, DE, USA). During all measurements, 20 injections of 16µM of the studied compound (2.5 µL each) were titrated into 250 µL of protein (2 µM) with time intervals of 300 s and a stirring speed of 250 rpm. All ITC experiments were conducted with degassed buffered solutions (100 mM phosphate buffer, pH 7.4) in the presence of 1% DMSO. Control experiments included the titration of each complex solution into a buffer. The corrected data refer to experimental data after subtraction of the buffer control data from the compounds data. The resulting thermograms were analysed using the “Independent” model within the NanoAnalyze software (TA Instruments, New Castle, DE, USA).

For another data set, the system named is plasma proteins. Nature of the data set: Plasma protein binding (rapid equilibrium dialysis). Format: in vitro ADME, human. As to conditions: 10 μM in 50% plasma, 37 °C, 4 h. As to the method: as §1, with “The mass spectrometry of the samples was carried out using electrospray ionisation in the positive ion mode. Daughter ion peaks were identified using a multiple-reaction monitoring protocol.” left out
The fraction bound value was determined using the semipermeable membrane that separates a protein-containing compartment (R chamber) from a protein-free compartment (W chamber) (Rapid Equilibrium Dialysis, Thermo Scientific™, Rockford, IL, USA). […] Samples were dissolved in mobile phase containing internal standard and analysed on the RF/MS.
For orientation: In equilibrium dialysis only unbound substance equilibrates across the membrane.

Sequence of CYP3A4 (P08684 whole entry): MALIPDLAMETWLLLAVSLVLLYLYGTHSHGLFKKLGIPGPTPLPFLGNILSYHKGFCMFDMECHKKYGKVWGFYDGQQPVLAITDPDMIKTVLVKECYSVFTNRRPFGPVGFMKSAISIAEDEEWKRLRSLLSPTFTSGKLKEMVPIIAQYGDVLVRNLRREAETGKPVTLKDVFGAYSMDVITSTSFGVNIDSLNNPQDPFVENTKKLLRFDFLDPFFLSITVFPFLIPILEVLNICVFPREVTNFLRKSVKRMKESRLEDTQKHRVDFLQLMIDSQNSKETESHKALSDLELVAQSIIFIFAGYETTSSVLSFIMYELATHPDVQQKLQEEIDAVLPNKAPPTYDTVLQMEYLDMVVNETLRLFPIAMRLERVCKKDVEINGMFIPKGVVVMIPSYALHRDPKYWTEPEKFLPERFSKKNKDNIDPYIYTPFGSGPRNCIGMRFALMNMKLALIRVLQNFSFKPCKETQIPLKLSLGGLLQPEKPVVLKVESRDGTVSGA
Protocol for CYP2C19: For each enzyme assay, the preliminary experiments to determine Michaelis constant (Km) and limiting velocity (Vmax) were performed to calculate the time of incubation (the specified time for which the reaction is still linear) and the values of substrate concentration (in the range corresponding to the value of Km).
The reaction mixtures were buffered by 0.1 M potassium phosphate buffer (pH 7.4) and contained a NADPH-generating system consisting of the isocitrate dehydrogenase (6 U/mL), NADP^+ (0.5 mM), isocitric acid (4 mM), and MgSO4 (5 mM). The final concentration levels of complexes were obtained by diluting a 10 mM solution with dimethyl sulfoxide (DMSO). It is known that DMSO can in some cases inhibit P450; the following measures were thus applied: (a) control samples containing organic solvent without the tested compounds were prepared and used as references; (b) DMSO levels were maintained below 0.1% to minimise the inhibition. Inhibition experiments were performed using five concentration levels of the tested compounds in the range of 10–100 µM. The maximum concentration was chosen so that in the case of inhibition, it would be possible to determine the inhibitory effect of the complexes and characterise them by determining the IC50 value. Additionally, an inhibitor-free control was used as a reference. Incubations were executed in two independent batches, and the samples were prepared and measured in triplicate at 37 °C. Analyses of the metabolites formed from the specific substrates were performed by HPLC using the Prominence system (Shimadzu, Kyoto, Japan) equipped with a LiChroCART 250-4 LiChrospher 100 RP-18 column, Chromolith® HighResolution RP-18 end-capped column (Merck, Darmstadt, Germany), or Kinetex Biphenyl column (Phenomenex, Torrace, CA, USA).
The apparent Ki values were determined by additional measurements using substrate concentrations corresponding to 1/2 Km, Km, 2 Km, and 4 Km in the case of inhibition. The type of model was selected on the basis of the Lineweaver–Burk and Dixon plots. The values of IC50 were obtained by analysing the plot of the percentage of activity remaining after inhibition versus the logarithm of the inhibitor concentration using the GraphPad Prism 6 software (La Jolla, CA, USA).
Protocol for CYP3A4/5: For each enzyme assay, the preliminary experiments to determine Michaelis constant (Km) and limiting velocity (Vmax) were performed to calculate the time of incubation (the specified time for which the reaction is still linear) and the values of substrate concentration (in the range corresponding to the value of Km). The amount of human liver microsomes (HLM; expressed as the amount of CYP in pmol and the concentration of HLM protein in mg/mL in the reaction vessel) in the reaction was determined using previously established protocols [40].
The reaction mixtures were buffered by 0.1 M potassium phosphate buffer (pH 7.4) and contained a NADPH-generating system consisting of the isocitrate dehydrogenase (6 U/mL), NADP^+ (0.5 mM), isocitric acid (4 mM), and MgSO4 (5 mM). The final concentration levels of complexes were obtained by diluting a 10 mM solution with dimethyl sulfoxide (DMSO). It is known that DMSO can in some cases inhibit P450; the following measures were thus applied: (a) control samples containing organic solvent without the tested compounds were prepared and used as references; (b) DMSO levels were maintained below 0.1% to minimise the inhibition. Inhibition experiments were performed using five concentration levels of the tested compounds in the range of 10–100 µM. The maximum concentration was chosen so that in the case of inhibition, it would be possible to determine the inhibitory effect of the complexes and characterise them by determining the IC50 value. Additionally, an inhibitor-free control was used as a reference. Incubations were executed in two independent batches, and the samples were prepared and measured in triplicate at 37 °C.
The type of model was selected on the basis of the Lineweaver–Burk and Dixon plots. The values of IC50 were obtained by analysing the plot of the percentage of activity remaining after inhibition versus the logarithm of the inhibitor concentration using the GraphPad Prism 6 software (La Jolla, CA, USA).

As usually defined, the Kd is the concentration at which binding is half-saturated. In the case of `Cc1cc2cccnc2c2ncccc12.O.O=[N+]([O-])[O-].O=c1c([O-])c(-c2ccccc2)[nH]c2ccccc12.[Cu+2]` [complex 1], in data set [1], the “% Compound Remaining, Plasma Stability, 15 min” value is recorded as 98.9 ± 2.5%; the “% Compound Remaining, Plasma Stability, 30 min” value was 94.0 ± 3.3%; the “% Compound Remaining, Plasma Stability, 60 min” value was determined as 94.2 ± 2.3%; the “% Compound Remaining, Plasma Stability, 120 min” value worked out at 91.2 ± 1.2%. In addition, in data set [2], the “% Compound remaining, Microsomal stability, 15 min” value is on record as 99.4 ± 3.5%; the “% Compound remaining, Microsomal stability, 30 min” value is 80.7 ± 2.8%; the “% Compound remaining, Microsomal stability, 60 min” value was 78% and 78.1 ± 1.7%. Besides, in data set [3], the “PAMPA Category” value is recorded as “Low (those with log Papp < −5 were considered poorly permeable)”. Besides, in the data set on CYP3A4/5, the “Type of inhibition, CYP3A4/5 (testosterone 6β-hydroxylation)” value is recorded as “non-competitive”; the IC50 was 2.46 µM; the Ki came to 3.6 ± 0.67 µM. At CYP2C19, the “Type of inhibition, CYP2C19” value is “non-competitive”; the Ki is 4.15 ± 0.71 µM; the IC50 stood at 61.2 µM. Further, on CYP3A4, the “n, CYP3A4” value came out at 1.171; the “Ka, CYP3A4” value amounted to 1.3e+07 M⁻¹; the Kd is 76.9 nM; the “ΔG, CYP3A4” value is listed as −34,899.9 J/mol. Also, on CYP3A4, the “ΔH, CYP3A4” value was -88.06 kJ/mol and the “ΔS, CYP3A4” value is listed as −178.3 J/mol.K. The “Plasma protein binding, % Fraction bound” value in the data set on plasma proteins was 95% and 95.1 ± 1.0%.

Take `Cc1cc2cccnc2c2ncccc12.F[B-](F)(F)F.O.O=c1c([O-])c(-c2ccccc2)[nH]c2ccccc12.[Cu+2]` [complex 2]: in data set [1], the “% Compound Remaining, Plasma Stability, 15 min” value is listed as 98.3 ± 2.4%; the “% Compound Remaining, Plasma Stability, 30 min” value is given as 94.1 ± 2.4%; the “% Compound Remaining, Plasma Stability, 60 min” value was 96.6 ± 3.4%; the “% Compound Remaining, Plasma Stability, 120 min” value came to 92.6 ± 2.2%. Also, in data set [2], the “% Compound remaining, Microsomal stability, 15 min” value is reported as 76.5 ± 2.7%; the “% Compound remaining, Microsomal stability, 30 min” value was found to be 76.2 ± 2.7%; the “% Compound remaining, Microsomal stability, 60 min” value was 70% and 69.7 ± 2.4%. For the same compound, the “PAMPA Category” value in data set [3] is on record as “Low (those with log Papp < −5 were considered poorly permeable)”. Also, in the data set with CYP3A4/5, the “Type of inhibition, CYP3A4/5 (testosterone 6β-hydroxylation)” value is “fully non-competitive”; the IC50 is 4.88 µM; the Ki turned out to be 3.94 ± 0.6 µM. The “CYP3A4/5 activity remaining (testosterone 6β-hydroxylation), % of basal activity” value in the data set on CYP3A4/5 (at 100 μM) came to 1%. At CYP2C19, the “Type of inhibition, CYP2C19” value is listed as “fully non-competitive”; the Ki was 9.14 ± 0.8 µM; the IC50 is 77.1 µM. In addition, the “CYP2C19 activity remaining, % of the basal activity” value at CYP2C19 (at 100 μM) is on record as 36%. At CYP3A4, the “n, CYP3A4” value was determined as 1.095; the “Ka, CYP3A4” value amounted to 1.59e+07 M⁻¹; the Kd worked out at 62.9 nM; the “ΔG, CYP3A4” value was -5586.6 J/mol. In addition, at CYP3A4, the “ΔH, CYP3A4” value is -51.77 kJ/mol and the “ΔS, CYP3A4” value is −154.9 J/mol.K. Also, the “Plasma protein binding, % Fraction bound” value with plasma proteins is 93% and 92.9 ± 1.5%.
